pIC50: −log10 of the molar value.
Molecular target: T1, M CPT-I (Homo sapiens, UniProt Q92523)
T1 sequence (Q92523 1-772): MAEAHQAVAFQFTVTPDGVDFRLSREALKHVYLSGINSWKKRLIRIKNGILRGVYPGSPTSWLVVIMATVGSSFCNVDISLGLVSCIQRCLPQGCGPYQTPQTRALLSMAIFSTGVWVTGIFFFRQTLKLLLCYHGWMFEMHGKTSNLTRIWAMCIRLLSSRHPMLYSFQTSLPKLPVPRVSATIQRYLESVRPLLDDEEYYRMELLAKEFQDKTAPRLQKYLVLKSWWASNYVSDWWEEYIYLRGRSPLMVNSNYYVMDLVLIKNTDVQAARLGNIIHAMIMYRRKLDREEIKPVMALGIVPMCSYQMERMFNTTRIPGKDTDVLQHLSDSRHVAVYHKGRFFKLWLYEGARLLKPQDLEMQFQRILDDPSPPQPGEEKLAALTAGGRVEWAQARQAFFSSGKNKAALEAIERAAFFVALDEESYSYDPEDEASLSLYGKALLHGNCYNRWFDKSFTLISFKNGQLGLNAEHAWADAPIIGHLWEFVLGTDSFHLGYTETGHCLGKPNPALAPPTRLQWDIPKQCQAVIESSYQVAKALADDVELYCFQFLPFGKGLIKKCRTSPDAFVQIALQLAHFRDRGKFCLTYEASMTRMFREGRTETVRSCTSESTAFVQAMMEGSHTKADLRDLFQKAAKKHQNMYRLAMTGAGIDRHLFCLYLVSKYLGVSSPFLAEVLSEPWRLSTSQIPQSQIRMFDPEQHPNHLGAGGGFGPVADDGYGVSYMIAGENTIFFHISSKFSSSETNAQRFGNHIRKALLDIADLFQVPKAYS
Assay: LC/MS HTS assay, malonyl-CoA inhibition of human MCPT-I (palmitoyl-CoA and carnitine converted to palmitoyl carnitine)
Format: biochemical
Settings: FIG. 9B
From the text: The biological activity used for the assay is the conversion by CPT-1 of palmitoyl-CoA (fatty acid-CoA) and carnitine to palmitoyl carnitine complex and free CoA.
The biological activity used for the assay is the conversion by CPT-1 of palmitoyl-CoA and carnitine to palmitoyl carnitine complex and free CoA.

- pIC50: 7.39
SMILES: CC(C)(COP(=O)(O)OP(=O)(O)OC[C@H]1O[C@@H](n2cnc3c(N)ncnc32)[C@H](O)[C@@H]1OP(=O)(O)O)[C@@H](O)C(=O)NCCC(=O)NCCSC(=O)CC(=O)O [Malonyl-CoA]

From US20080305958A1, “Process for Liquid or gas Chromatography/Mass Spectrometry Based Biomolecular Screening for Drug Discovery” (priority 2004, published 2008)
